Source: patent US8278464B2, “Insecticides” (Syngenta Crop Protection LLC, priority 2006, dated 2012)

What was measured:
Type in all cases: in vivo
[1] = system: Spodoptera littoralis (Egyptian Cotton Leafworm); test: Activity against Spodoptera littoralis, cotton leaf discs sprayed (Example B1); conditions: foliar, 72 h, L1 larvae, checked 3 days after treatment
Excerpt: Cotton leaf discs are placed on agar in a 24-well microtiter plate and sprayed with test solutions. After drying, the leaf discs are infested with 5 L1 larvae. The samples are checked for mortality, repellent effect, feeding behaviour, and growth regulation 3 days after treatment (DAT).

[2] = system: Heliothis virescens (Tobacco Budworm); test: Activity against Heliothis virescens, eggs on artificial diet (Example B2); conditions: 96 h, eggs 0-24 h old, incubation 4 days
Method: Eggs (0-24 h old) are placed in 24-well microtiter plate on artificial diet and treated with test solutions by pipetting. After an incubation period of 4 days, samples are checked for egg mortality, larval mortality, and growth regulation.

[3] = system: Plutella xylostella (Diamond Back Moth); test: Activity against Plutella xylostella, artificial diet MTP (Example B3); conditions: 120 h, L2 larvae, incubation 5 days
Method: (§1) 24-well microtiter plate (MTP) with artificial diet is treated with test solutions by pipetting. After drying, the MTP's are infested with larvae (L2) (10-15 per well). After an incubation period of 5 days, samples are checked for larval mortality, antifeedant and growth regulation. In this test, compounds listed in the Tables above show good activity. In particular compounds T13.1.2, T15.1.1, T15.1.91, T13.1.1, T9.1.2 (diastereomer A), T9.1.2 (diastereomer B), T16.1.1, T17.1.2 (diastereomer A), T17.1.2 (diastereomer B), T16.1.91, T13.1.92, T13.1.361, T13.1.391, T13.1.91, T13.1.6, T13.1.96, T44.1.2, T13.1.8, T13.1.23, T13.1.93, T13.1.113, T13.1.21, T13.1.111 have an activity of over 80% at 400 ppm.

[4] = system: Diabrotica balteata (Corn Root Worm); test: Activity against Diabrotica balteata, artificial diet MTP (Example B4); conditions: 120 h, L2 larvae, incubation 5 days
Method: as §1, with “(6-10” for “(10-15”, “B),” for “B), T16.1.1,”, “T13.1.92,” for “T13.1.92, T13.1.361, T13.1.391,”, “T13.1.23,” for “T13.1.23, T13.1.93,”

[5] = system: Myzus persicae (Green Peach Aphid); test: Activity against Myzus persicae, contact, sunflower leaf discs (Example B5); conditions: foliar, 144 h, 6 DAT
Method: Sunflower leaf discs are placed on agar in a 24-well microtiter plate and sprayed with test solutions. After drying, the leaf discs are infested with an aphid population of mixed ages. After an incubation period of 6 DAT, samples are checked for mortality and special effects (e.g. phytotoxicity).

[6] = system: Myzus persicae (Green Peach Aphid); test: Activity against Myzus persicae, systemic, pea seedlings (Example B6); conditions: 144 h, 6 days after introduction
Excerpt: Roots of pea seedlings, infested with an aphid population of mixed ages, are placed directly in the test solutions. 6 days after introduction, samples are checked for mortality and special effects on the plant.

[7] = system: Thrips tabaci (Onion Thrips); test: Activity against Thrips tabaci, sunflower leaf discs (Example B7); conditions: foliar, 144 h, incubation 6 days
Method: Sunflower leaf discs are placed on agar in a 24-well microtiter plate and sprayed with test solutions. After drying, the leaf discs are infested with a thrips population of mixed ages. After an incubation period of 6 days, samples are checked for mortality and special effects (e.g. phytotoxicity).

[8] = system: Spodoptera littoralis (Cotton Leafworm); test: Systemic insecticide test for Spodoptera littoralis, maize seedlings, 12.5 ppm (Example B9); conditions: 96 h, 12.5 ppm in water, systemic via maize seedlings, larvae incubated four days
Method: (§2) Four day old maize seedlings (Zea mais, variety Stoneville) are placed individual in vials containing 24 ml water into which the chemical is diluted at 12.5 ppm. Seedlings are allowed to grow for six days. Subsequently leaves are cut and placed in a Petri dish (5 cm diameter), inoculated with twelve to fifteen 1st instar S. littoralis larvae and incubated for four days in a growth chamber (25° C., 50% r.h., 18:6 L:D photo period). Number of alive insects are counted and percentage of dead calculated. Tests were conducted with one replicate.

[9] = system: Spodoptera littoralis (Lepidoptera:Noctuidae); test: Systemic insecticide test for Spodoptera littoralis, comparison with state of the art (Example B11)
Method: as §2, with “the prescribed concentrations (3 and 0.8 ppm).” for “12.5 ppm.”, “(3.5” for “(5”, “calculated. Effects on larvae growth were compared to the control and percentage of larvae growth reduction calculated.” for “calculated.”

SMILES	pest or weed control at 400 ppm [1]	pest or weed control at 400 ppm [2]	pest or weed control at 400 ppm [3]	pest or weed control at 400 ppm [4]	pest or weed control at 400 ppm [5]	pest or weed control at 400 ppm [6]	pest or weed control at 400 ppm [7]	pest or weed control at 12.5 ppm [8]	Death rate (%) after 4 days ([9]; concentration 0.8 ppm)	Larvae growth reduction (% compared to control) ([9]; concentration 0.8 ppm)	Death rate (%) after 4 days ([9]; concentration 3 ppm)	Larvae growth reduction (% compared to control) ([9]; concentration 3 ppm)
Cc1cc(C#N)cc(C(=O)NC2(C)CS(=O)(=O)C2)c1NC(=O)c1cc(C(F)(F)F)nn1-c1ncccc1Cl [T13.1.92]	> 80%	> 80%	> 80%	> 80%	> 80%	> 80%	> 80%	> 80%	–	–	–	–
O=C(NC1CS(=O)(=O)C1)c1cccc(Cl)c1NC(=O)c1cc(C(F)(F)F)nn1-c1ncccc1Cl [T13.1.391]	> 80%	> 80%	> 80%	–	–	–	–	> 80%	10%	0%	55%	100%
Cc1cc(Cl)cc(C(=O)NC2(C)CS(=O)(=O)C2)c1NC(=O)c1cc(C(F)(F)F)nn1-c1ncccc1Cl [T13.1.2, 2-(3-Chloro-pyridin-2-yl)-5-trifluoromethyl-2H-pyrazole-3-carboxylic acid [4-chloro-2-methyl-6-(3-methyl-1,1-dioxo-1λ^6-thietan-3-ylcarbamoyl)-phenyl]-amide]	> 80%	> 80%	> 80%	> 80%	> 80%	> 80%	> 80%	> 80%	–	–	–	–
Cc1cc(Cl)cc(C(=O)NC2CS(=O)(=O)C2)c1NC(=O)c1cc(OCC(F)(F)F)nn1-c1ncccc1Cl [T13.1.21]	> 80%	> 80%	> 80%	> 80%	> 80%	> 80%	> 80%	–	–	–	–	–
O=C(NC1CCC1)c1cccc(Cl)c1NC(=O)c1cc(C(F)(F)F)nn1-c1ncccc1Cl [Comp. 296, reference compound]	–	–	–	–	–	–	–	–	0%	0%	0%	0%
Cc1cc(C#N)cc(C(=O)NC2CS(=O)(=O)C2)c1NC(=O)c1cc(Br)nn1-c1ncccc1Cl [T13.1.96]	> 80%	> 80%	> 80%	> 80%	> 80%	> 80%	> 80%	> 80%	–	–	–	–
Cc1cc(Cl)cc(C(=O)NC2(C)C[S+]([O-])C2)c1NC(=O)c1cc(C(F)(F)F)nn1-c1ncccc1Cl (single isomer, unassigned) [T9.1.2 (diastereomer A)]	> 80%	> 80%	> 80%	> 80%	> 80%	> 80%	> 80%	> 80%	–	–	–	–
Cc1cc(Cl)cc(C(=O)NC2(C)CS(=N)(=O)C2)c1NC(=O)c1cc(C(F)(F)F)nn1-c1ncccc1Cl (single isomer, unassigned) [T17.1.2 (diastereomer A)]	> 80%	> 80%	> 80%	> 80%	> 80%	> 80%	> 80%	> 80%	–	–	–	–
